According to EP0958287B1, “SULFAMIDE-METALLOPROTEASE INHIBITORS” (F. HOFFMANN-LA ROCHE AG, priority 1997, dated 1998):

Key:
[1] = system: collagen matrix; assay: Cartilage plug degradation in vivo (cartilage plug implant assay, hydroxyproline content); conditions: cartilage plug implant in female Lewis rats, terminated after 8 or 9 days; hydroxyproline content relative to vehicle group
[2] = system: TNF; assay: Inhibition of TNF release in vitro (LPS/PMA stimulated Monomac 6 cells); type: cell-based; conditions: Homo sapiens, MONO-MAC-6, Conc. 10 µM, 2 h
Method: The activity of compounds of this invention in inhibiting the TNF release was determined, using the a minor modification of the method described in Pradines-Figueres, A. and Raetz, C.R.H., J. Biol. Chem., 267 (32), 23261, (1992).
Human Monomac 6 cells (Ziegler-Heitbrock, H.W.L., et al., Int. J. Cancer, 41, 456, (1988)) were cultured at 37 °C in RPMI 1640 medium containing 10% fetal calf serum to a density of 1 x 10^5 cells/ml. 0.23 ml of these cells were placed in each well of a tissue culture plate and the cells were incubated for 15 min. The test compounds were dissolved in above mentioned medium and added and the incubation was continued for an additional 15 min. 10 µl of an lipopolysaccharide/phorbol-12-myristate -13-acetate (LPS/PMA) mixture was added such that the final concentration of lipopolysaccharide was 10 ng/ml and the final concentration of phorbol-12-myristate -13-acetate was 30 ng/ml. The cells were incubated for 2 h after which the plate was centrifuged and the medium was removed and analyzed for TNF content. The analysis was performed using a TNF Quantikine® Immunoassay (R & D Systems, Minneapolis, MN 55413) by following the manufacturer's protocol.

[3] = system: TNF-α; assay: Inhibition of LPS induced TNF-α production in mice in vivo; conditions: Female Balb/c mice, subcutaneous, LPS 50 µg/mouse i.p. after 1 h, serum TNF-α 1.5 h later
Method: The activity of compounds of this invention in inhibiting the TNF-α release was determined, using a minor modification of the methods described in Zanetti, G.; Heumann, D., et. al., "Cytokine production after intravenous or peritoneal Gram-negative bacterial challenge in mice" J. Immunol., 148, 1890, (1992) and Sekut, L., Menius, J.A., et. al., "Evaluation if the significance of elevated levels of systemic and localized tumor necrosis factor in different animal models of inflammation" J. Lab. Clin. Med., 124, 813, (1994).
Female Balb/c mice were anesthetized and injected subcutaneously with the test compounds dissolved in CMC vehicle or hydroxypropylmethyl cellulose based vehicle. Control animals received only the vehicle. After 1 h, LPS (50 µg/ mouse, Sigma #13129, Sigma Chemical Co., St. Louis, MO) was injected intraperitoneally. After 1.5 h, blood was collected from the retro-orbital plexus region of the animals in a microtainer serum separator tube (Becton Dickinson, Cat. No. #5960, Becton Dickinson & Co., Franklin Lakes, NJ). The sera was separated and the amount of TNF-α was determined using the EM-TNFA® kit (Endogen, Woburn, MA) by following the manufacturer's protocol.

[4] = system: collagen matrix; assay: Degradation of cartilage plug in vitro (IL-1-α stimulated cartilage explants, hydroxyproline content); type: cell-based; conditions: bovine cartilage explants stimulated with IL-1-α 20 ng/ml, 21 days; compounds at concentrations between 10 and 300 nm; hydroxyproline content relative to control
Method: The ability of the compounds of this invention to inhibit the degradation of the collagen matrix (as judged by release of hydroxyproline) was determined by the cartilage plug degradation assay in vitro by following a slight modification of the method described in Spirito, S., Doughty, E., et al., "Metalloproteinase inhibitors halt collagen breakdown in IL-1 induced bovine nasal cartilage cultures" Inflamm.
The cultures were stimulated with IL-1-α at a final concentration of 20 ng/ml. Compounds of Formula (I), were added at concentrations between 10 and 300 nm in DMSO. The control samples contained only IL-1-α. […] The cartilage plugs were removed, hydrolyzed and the hydroxyproline content was determined. The MMP inhibitory activity of test materials is the measure of the hydroxyproline content in the test group relative to the vehicle treated group (control group).

[5] = biological target: human collagenase-3; assay: Inhibition of matrix metalloproteases in vitro: human collagenase-3; type: biochemical; conditions: hydrolysis of MCA-Pro-Leu-Gly-Leu-DPA-Ala-Arg-NH2 at 37 °C; species of collagenase-III not given
[6] = biological target: human collagenase-1; assay: Inhibition of matrix metalloproteases in vitro: collagenase-1; type: biochemical; conditions: hydrolysis of MCA-Pro-Leu-Gly-Leu-DPA-Ala-Arg-NH2 at 37 °C; read-out: Collagenase-I IC50
Method: The matrix metalloprotease enzyme was diluted with assay buffer (50 mM Tricine pH 7.5, 200 mM NaCl, 10 mM CaCl2, and 0.005% Brij-35) containing 10 µmole of above substrate dissolved in DMSO.

Row | SMILES | % protection [1] [%] | % inhibition [3] [%] | other results
1 | CC(C)[C@@H](NS(=O)(=O)N1CCN(c2ccc(OCc3ccccc3)cc2)CC1)C(=O)NO [compound 74, N-hydroxy-2-(R)-{[4-(4-benzyloxyphenyl)piperazine-1-sulfonyl]amino}-3-methylbutyramide] | 46 | – | inhibition at 10 µM [2]: 17%
2 | CN(C)C(=O)N1CCN(S(=O)(=O)N2CCC(c3c[nH]c4c(F)c(F)c(F)c(F)c34)CC2)[C@@H](C(=O)NO)C1 [compound 309] | – | 46 | –
3 | CC(C)[C@@H](NS(=O)(=O)N1CCC(Oc2ccc(F)cc2)CC1)C(=O)NO [compound 179] | 63 | – | –
4 | CC(C)[C@@H](NS(=O)(=O)N1CCN(c2ccc(Cl)cc2)CC1)C(=O)NO [compound 51] | 45 | – | % protection [4]: 35%
5 | O=C(c1ccc(Cl)cc1)C1CCN(S(=O)(=O)N2CCCC[C@@H]2C(=O)NO)CC1 [compound 242] | – | – | % protection [4]: 27%
6 | CC(C)[C@@H](NS(=O)(=O)N1CCN(c2ccc(Cl)cn2)CC1)C(=O)NO [compound 50] | 70 | – | % protection [4]: 71%
7 | N#Cc1ccc2[nH]cc(C3CCN(S(=O)(=O)N4CCCC[C@@H]4C(=O)NO)CC3)c2c1 [compound 294] | – | 90 | –
8 | CC(C)[C@H](C(=O)NO)N(Cc1ccccc1)S(=O)(=O)N1CCCCC1 [compound 1, N-hydroxy-2-(R)-[benzyl-(piperidine-1-sulfonyl)amino]-3-methylbutyramide] | – | – | inhibition at 10 µM [2]: < 15%
9 | CC(C)[C@@H](NS(=O)(=O)N1CCN(c2ccc(OCc3ccncc3)cc2)CC1)C(=O)O [compound 413] | – | – | IC50 [5]: 0.26 µM; IC50 [6]: 9.3 µM
10 | O=CN1CCN(S(=O)(=O)N2CCC(C(=O)c3ccc(Cl)cc3)CC2)C(C(=O)NO)C1 (stereo not shown) [compound 262] | – | 50 | –
11 | O=C(NO)C1CCCCN1S(=O)(=O)N1CCN(c2ccc(Cl)cc2)CC1 (racemic) [compound 234] | – | 46 | –
12 | O=C(NO)[C@H]1CCCCN1S(=O)(=O)N1CCCC1 [compound 232] | – | 73 | –
